Test results from US20220175768A1, “FGFR TYROSINE KINASE INHIBITORS FOR THE TREATMENT OF UROTHELIAL CARCINOMA” (Janssen Pharmaceutica NV, priority 2019, published 2022).

Assay: Excretion following a single oral dose of radiolabeled erdafitinib
Type: in vivo, human

Question: Which “Dose recovered in feces” value does the source give for `COc1cc(OC)cc(N(CCNC(C)C)c2ccc3ncc(-c4cnn(C)c4)nc3c2)c1` [erdafitinib, N-(3,5-dimethoxy-phenyl)-N′-(1-methylethyl)-N-[3-(1-methyl-1H-pyrazol-4-yl)quinoxalin-6-yl]ethane-1,2-diamine] here?
Answer: Its value is “approximately 69%”.

Question: What about the “Dose recovered in feces as unchanged” value of the same compound?
Answer: Its value is 19%.

Question: What about the “Dose recovered in urine” value of the same compound?
Answer: Its value is 19%.

Question: And the “Dose recovered in urine as unchanged” value?
Answer: The value was 13%.
